In ChEMBL document CHEMBL1201862, “PubChem BioAssay data set” (2004):
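Interpolation was linear, between the two tested concentrations surrounding the appropriate level; five concentrations were tested over 48 hours in 96-well plates. Here, GI50 denotes the concentration required for 50% inhibition of growth.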 The source made the active and inactive calls. Cut-off read from the data, not from the text of the source: active = GI50 up to about 1.1 µM and inactive = higher.

Columns and labels:
Test in all cases: NCI tumour cell line growth inhibition, 48 h
[1] = system: BT-549
[2] = system: HCC 2998
[3] = system: HCT-116
[4] = system: HOP-62
[5] = system: HOP-92
[6] = system: MCF7
[7] = system: MDA-MB-231
[8] = system: MDA-MB-435
[9] = system: NCI-H460
[10] = system: NCI/ADR-RES
[11] = system: OVCAR-4
[12] = system: OVCAR-8
[13] = system: RPMI-8226
[14] = system: SK-MEL-2
[15] = system: SK-OV-3
[16] = system: SR
[17] = system: T47D
[18] = system: UACC-257
[19] = system: UACC-62
[20] = system: MDA-N

| Compound | GI50 [1] | GI50 [2] | GI50 [3] | GI50 [4] | GI50 [5] | GI50 [6] | GI50 [7] | GI50 [8] | GI50 [9] | GI50 [10] | GI50 [11] | GI50 [12] | GI50 [13] | GI50 [14] | GI50 [15] | GI50 [16] | GI50 [17] | GI50 [18] | GI50 [19] | GI50 [20] |
| --- | --- | --- | --- | --- | --- | --- | --- | --- | --- | --- | --- | --- | --- | --- | --- | --- | --- | --- | --- | --- |
| COc1ccc(CCCCl)c(C2=NCCc3cc(OC)c(OC)cc32)c1 | 37.8 µM (inactive) | 48.4 µM (inactive) | 33 µM (inactive) | 91.2 µM (inactive) | 20.6 µM (inactive) | 41.5 µM (inactive) | 69.3 µM (inactive) | 35.6 µM (inactive) | 37.8 µM (inactive) | 46.8 µM (inactive) | > 100 µM (inactive) | 25.6 µM (inactive) | 6.87 µM (inactive) | 39.7 µM (inactive) | > 100 µM (inactive) | > 100 µM (inactive) | 46.1 µM (inactive) | 42.3 µM (inactive) | 32.8 µM (inactive) |  |
| CCOC(=O)CCC(C(=O)OCC)n1nc2ccc(Nc3c(C)[n+]([O-])c4cc(Cl)ccc4[n+]3[O-])cc2n1 (centres undefined) | > 100 µM (inactive) |  | 30.1 µM (inactive) | > 100 µM (inactive) | 27 µM (inactive) | 38.2 µM (inactive) |  | 69.7 µM (inactive) | 24.3 µM (inactive) | > 100 µM (inactive) | 65.8 µM (inactive) | > 100 µM (inactive) | 19.5 µM (inactive) | 96.2 µM (inactive) | > 100 µM (inactive) | 10.1 µM (inactive) | 32.9 µM (inactive) | 94.4 µM (inactive) | 66.1 µM (inactive) | 98.4 µM (inactive) |
| Cc1ccc(Cl)c2c1NC(=O)/C2=N\Nc1ccccc1[N+](=O)[O-] |  | 36.9 µM (inactive) | 36.3 µM (inactive) | 56.1 µM (inactive) | 42.5 µM (inactive) | 36.3 µM (inactive) | 75 µM (inactive) | 15.7 µM (inactive) | 30.4 µM (inactive) | 57.1 µM (inactive) | 96.6 µM (inactive) | 39.7 µM (inactive) | 52.8 µM (inactive) | > 100 µM (inactive) | > 100 µM (inactive) | 8.22 µM (inactive) | 44.3 µM (inactive) | 82.2 µM (inactive) | 31.4 µM (inactive) | 39.4 µM (inactive) |
| CCCCCCOc1ccc(NC2=C(Cl)C(=O)c3ncccc3C2=O)cc1 | 1.76 µM (inactive) |  | 1.16 µM (inactive) | 1.92 µM (inactive) | > 10 µM (inactive) | 1.11 µM (active) |  | 1.7 µM (inactive) | 1.55 µM (inactive) |  |  | 3.43 µM (inactive) |  |  | > 10 µM (inactive) |  | 1.68 µM (inactive) | 1.9 µM (inactive) | 1.44 µM (inactive) | 1.52 µM (inactive) |
| O=C1CCCC2C(O)CCC[C@H]12 (some centres undefined) | > 100 µM (inactive) | > 100 µM (inactive) | > 100 µM (inactive) | > 100 µM (inactive) |  | > 100 µM (inactive) | > 100 µM (inactive) |  | > 100 µM (inactive) | > 100 µM (inactive) | > 100 µM (inactive) | > 100 µM (inactive) |  | > 100 µM (inactive) | > 100 µM (inactive) | > 100 µM (inactive) | > 100 µM (inactive) | > 100 µM (inactive) | > 100 µM (inactive) | > 100 µM (inactive) |
| CNC1c2ccccc2C(=O)c2cc3c(cc21)OCCOCCOCCOCCO3 (centres undefined) |  | > 100 µM (inactive) | > 100 µM (inactive) | > 100 µM (inactive) |  | 55.5 µM (inactive) | 82.2 µM (inactive) | > 100 µM (inactive) | > 100 µM (inactive) | > 100 µM (inactive) | > 100 µM (inactive) | > 100 µM (inactive) | 34.8 µM (inactive) |  | > 100 µM (inactive) | 28.7 µM (inactive) | > 100 µM (inactive) | > 100 µM (inactive) |  | 96.8 µM (inactive) |
| CCC(=O)Nc1ccc(NS(=O)(=O)c2ccc(Cl)cc2)cc1 | > 100 µM (inactive) | > 100 µM (inactive) | > 100 µM (inactive) | > 100 µM (inactive) | > 100 µM (inactive) | > 100 µM (inactive) |  | > 100 µM (inactive) | > 100 µM (inactive) | > 100 µM (inactive) | 53.6 µM (inactive) | > 100 µM (inactive) | 17.7 µM (inactive) | > 100 µM (inactive) | > 100 µM (inactive) | 89.3 µM (inactive) | > 100 µM (inactive) | 87.7 µM (inactive) | 99.3 µM (inactive) | > 100 µM (inactive) |
| O=C(/C=N/O)c1c(-c2ccccc2)[nH]c(-c2ccccc2)c1-c1ccccc1 | < 0.01 µM (active) | 34 µM (inactive) | 26.2 µM (inactive) | 44.4 µM (inactive) | 14 µM (inactive) | 15.6 µM (inactive) | 13.3 µM (inactive) | 14.4 µM (inactive) | 16.7 µM (inactive) | 6.78 µM (inactive) | 13.6 µM (inactive) |  | 5.35 µM (inactive) | 11.1 µM (inactive) | 16.1 µM (inactive) | 0.0481 µM (active) | 17.1 µM (inactive) | 16.2 µM (inactive) | 15.2 µM (inactive) |  |
| Cc1c2ccncc2cc2c1sc1ccncc12 | 2.49 µM (inactive) | 5.52 µM (inactive) | 1.75 µM (inactive) | 1.74 µM (inactive) | 8.22 µM (inactive) | 0.41 µM (active) | 3.57 µM (inactive) |  | 0.485 µM (active) |  | 5.71 µM (inactive) | 2.61 µM (inactive) | 0.993 µM (active) | 6.17 µM (inactive) | 2.23 µM (inactive) | 0.325 µM (active) | 2.04 µM (inactive) | 3.85 µM (inactive) | 2.16 µM (inactive) | 2.67 µM (inactive) |
| Cn1c(=O)sc2cc(C(=S)N3CCCCC3)ccc21 | 66.4 µM (inactive) |  | 89.7 µM (inactive) | > 100 µM (inactive) |  | > 100 µM (inactive) | 45.9 µM (inactive) | > 100 µM (inactive) | > 100 µM (inactive) | 29.6 µM (inactive) |  | 25.4 µM (inactive) | 61 µM (inactive) | > 100 µM (inactive) | > 100 µM (inactive) | 22 µM (inactive) |  | > 100 µM (inactive) | > 100 µM (inactive) | > 100 µM (inactive) |
| O=C1Nc2ccccc2Cn2c1cc1oc(-c3ccccc3)cc12 |  | > 100 µM (inactive) |  | 21.6 µM (inactive) | 31.3 µM (inactive) | 10.8 µM (inactive) | 32.5 µM (inactive) | > 100 µM (inactive) | 61.7 µM (inactive) | 45.5 µM (inactive) | 28.8 µM (inactive) | 31 µM (inactive) |  | 44.2 µM (inactive) | 28 µM (inactive) | > 100 µM (inactive) | 23.8 µM (inactive) | > 100 µM (inactive) | 34.1 µM (inactive) | > 100 µM (inactive) |
| CCCNC(=S)N/C=C1/C(=O)Oc2ccccc2C1=O | > 100 µM (inactive) | > 100 µM (inactive) | > 100 µM (inactive) | > 100 µM (inactive) | 53 µM (inactive) | > 100 µM (inactive) | > 100 µM (inactive) | > 100 µM (inactive) | > 100 µM (inactive) | > 100 µM (inactive) | > 100 µM (inactive) | > 100 µM (inactive) |  | 75.3 µM (inactive) | 42.2 µM (inactive) | > 100 µM (inactive) |  | > 100 µM (inactive) | 92 µM (inactive) | > 100 µM (inactive) |
| O=C(NCCN1CCCCC1)c1cccc(I)c1 | > 100 µM (inactive) | > 100 µM (inactive) |  |  | 94.2 µM (inactive) | > 100 µM (inactive) |  |  | > 100 µM (inactive) | > 100 µM (inactive) | > 100 µM (inactive) | > 100 µM (inactive) | > 100 µM (inactive) |  | > 100 µM (inactive) | > 100 µM (inactive) |  |  | > 100 µM (inactive) |  |
| C[C@@H]1[C@@H](c2ccccc2)O[B-](c2ccccc2)(c2ccccc2)[N+]1(C)C | 43.6 µM (inactive) |  | 59.3 µM (inactive) | > 100 µM (inactive) | 25.4 µM (inactive) |  | > 100 µM (inactive) | 98.6 µM (inactive) | > 100 µM (inactive) | > 100 µM (inactive) | 56.4 µM (inactive) | 99.5 µM (inactive) | 58.9 µM (inactive) | > 100 µM (inactive) | > 100 µM (inactive) | 53 µM (inactive) | 54.5 µM (inactive) | > 100 µM (inactive) | > 100 µM (inactive) | 54.1 µM (inactive) |
| CC(=O)N/N=C1/CC[C@@]2(C)C(=CC[C@H]3C4CCC(C(C)CCCC(C)C)[C@@]4(C)CCC32)C1(C)C (some centres undefined) | > 100 µM (inactive) |  | 48.8 µM (inactive) | > 100 µM (inactive) | > 100 µM (inactive) | 53.7 µM (inactive) |  | 82 µM (inactive) | 32.1 µM (inactive) | 47.8 µM (inactive) | 50.5 µM (inactive) | 51.1 µM (inactive) | > 100 µM (inactive) | 58.3 µM (inactive) | > 100 µM (inactive) | 50.9 µM (inactive) | 70.5 µM (inactive) | 36.6 µM (inactive) | > 100 µM (inactive) | > 10 µM (inactive) |
| COc1ccc(/C(C#N)=C/c2ccc(OC)c(OC)c2)cc1 |  | 59 µM (inactive) | > 100 µM (inactive) | > 100 µM (inactive) | > 100 µM (inactive) | > 100 µM (inactive) | > 100 µM (inactive) | 83.4 µM (inactive) | > 100 µM (inactive) | > 100 µM (inactive) | 69.8 µM (inactive) | > 100 µM (inactive) | > 100 µM (inactive) | > 100 µM (inactive) | > 100 µM (inactive) |  | 49.5 µM (inactive) | > 100 µM (inactive) | > 100 µM (inactive) | > 100 µM (inactive) |
